These results are taken from US8816065B2, “Pharmaceutical or cosmetic composition containing nicotinic acid adenine dinucleotide phosphate or derivative thereof” (Damy Chemical Co., Ltd., priority 2010, dated 2014).

Assay [1] deals with Epidermal keratinocyte neonatal (NHEK-Np). The experiment in a line: Increase in intracellular calcium in cultured keratinocytes (fluo-3 AM, confocal microscopy). Type of assay: cell-based, human. As for the experimental part:
In the present example, an efficacy in inducing an increase in intracellular calcium was evaluated when cultured keratinocytes were treated with NAADP in order to confirm an effect of recovering a skin barrier in the composition of the present invention.
Epidermal keratinocyte neonatal (NHEK-Np, CC-2507, Lonza Co. Ltd.) was treated with fluo-3 AM (Molecular Probe, USA), an intracellular calcium marker, for 30 minutes in a CO2 incubator and then washed with a KBM (Keratinocyte Basal Media, KBM-2, Lonza Co. Ltd.) medium three times. Measurement of intracellular calcium was performed in the KBM medium and an increase in intracellular calcium due to NAADP was observed. For the measurement of intracellular calcium, a concentration of calcium was calculated through the collection of images at 530 nm by using a confocal microscopy (Nikon, Japan) equipped with a laser source having an excitation wavelength of 488 nm and an emission wavelength of 530 nm Amounts of changes in calcium measured when epidermal keratinocyte neonatal (5×10^5 cells) was treated with 0.1 nM, 1 nM, 10 nM, 100 nM, 1000 nM of NAADP are illustrated in FIG. 1, respectively.
On the technique in general: A change in cytosolic calcium serves as a functional read-out for many receptors and channels.

The subject of assay [2] is involucrin, keratin 1, and keratin 10 in primarily cultured epidermal keratinocyte neonatal. Briefly: Expression of keratinocyte differentiation markers by western blotting. Format: cell-based, human. The protocol: An effect of NAADP on promoting cell differentiation was tested by measuring the expression of differentiation markers (involucrin, keratin 1, and keratin 10) generated during the differentiation of the keratinocytes by using a western blotting method.
Primarily cultured epidermal keratinocyte neonatal was put into a culture flask and attached to the bottom thereof, and then cultured for 5 days until the cells grew to cover about 70% to 80% of an area of the bottom by adding NAADP diluted for each concentration and retinol acid as a control group into a culture medium. The cells were harvested and cleaned with phosphate buffered saline (PBS). Next, precipitates obtained by adding 1 ml of a 10 mM tris-HCl (pH 7.4) buffer solution containing 2% sodium dodecyl sulfate (SDS) and 20 mM dithiothreitol (DTT) and being subjected to sonication, boiling, and centrifugation were again suspended in 1 ml of PBS. A content of protein in the suspension was measured and used as a criterion during the evaluation of a degree of cell differentiation. The results of tests performed by using a group treating the epidermal keratinocyte neonatal (5×10^5 cells) with retinol acid (1 μM) as a positive control group and adding each NAADP having different concentration (10 pM to 10 μM) to a low calcium concentration are presented in the following FIG. 2.
On the technique in general: In western blotting, separated proteins are transferred to a membrane and probed.

In assay [3] the test system is keratin 1 and keratin 10 in outer skin of hairless mice. The experiment in a line: Induction of keratinocyte differentiation in hairless mouse skin after topical application (keratin 1/keratin 10 immunostaining). Type of assay: in vivo. The protocol: Hairless mice (SPF/VAF Crl:SKH 1-hr) used in the present tests were purchased from OrientBio (Seongnam, Korea). NAADP, an experiment material of the present invention, used was a product of Sigma-Aldrich Corporation.
Test materials were prepared by dissolving NAADP for each concentration in a solution, in which 1% dimethyl sulfoxide (DMSO) was added to a phosphate buffer solution, and tests were performed by using a method of applying the test materials on right and left portions of the back of a 6-week-old mouse with cotton swabs. The test materials were applied 5 times for each concentration and the applications were performed twice a day at 9:00 a.m. and 7:00 p.m. Animals having the test materials applied for one week were sacrificed by cervical dislocation, and the skin was dissected to prepare a size of 1 cm×1 cm and was then fixed in a 10% formalin solution over a night. A paraffin block was prepared from the fixed tissues to prepare 5 micrometer slices and the slices were dyed with an antibody (Santa Cruz #SC53251) simultaneously identifying keratin 1 and keratin 10 at a dilution ratio of 1:100. Anti-mouse IgG (invitrogen) combined with Alexa 488 was used as a secondary antibody.
A solution, in which 1% DMSO was added to a phosphate buffer solution, was used as a control group and solutions prepared by diluting the solution used as the control group with NAADP in various concentrations were used as a test group.

Setting [4] is: in vitro, NAADP having a high concentration.

Bounds are passed on as bounds.

As for “nicotinic acid adenine dinucleotide phosphate [NAADP]”, the “intracellular calcium at high concentration of NAADP” value in assay [1] (setting [4]) is “increased”. In addition, the “movement of intracellular calcium” value in assay [1] (treatment with 1 nM to 100 nM of NAADP, 5×10^5 cells, FIG. 1) is “induced”. For the same substance, the “expression of differentiation markers (involucrin, keratin 1, keratin 10)” value in assay [2] (10 pM to 10 μM of NAADP, low calcium concentration, cultured 5 days, FIG. 2) is on record as “differentiation markers were expressed”. The “effect on keratin 1 and keratin 10 relative to the other marker” value in assay [2] (10 pM to 10 μM of NAADP, FIG. 2) is given as “better effects”. Also, the “expression of the markers at high concentration of NAADP” value in assay [2] (setting [4]) is “decreased”. Moreover, in assay [3] (hairless mouse), the “concentration dependence of keratin 1 and keratin 10 increase in vivo” value is “increased by depending on the concentration of NAADP”. Further, the “concentration at which an increase in the expression level of the differentiation marker appeared” value in assay [3] (twice a day for one week) is listed as no less than 100 nM. In addition, the “expression levels of keratin 1 and keratin 10 in outer skin versus control group” value in assay [3] (twice a day for one week, in PBS with 1% DMSO, FIG. 3) is on record as “increased”.
